Values belong to the compound of their own block, whether it stands above or below them.
How the values were obtained:
NRK [1] = assay: Cytotoxicity against rat NRK cells assessed as reduction in cell viability incubated for 24 hrs under 2% O2 condition by WST-1 assay; format: cell-based
H9c2 [2] = assay: Cytotoxicity against rat H9c2 cells assessed as reduction in cell viability incubated for 24 hrs under 19% O2 condition by WST-1 assay; format: cell-based; conditions: H9c2, 24 h
NRK [3] = assay: Cytotoxicity against rat NRK cells assessed as reduction in cell viability incubated for 24 hrs under 19% O2 condition by WST-1 assay; format: cell-based
MOLM-13 [4] = assay: Cytotoxicity against human MOLM13 cells assessed as reduction in cell viability incubated for 24 hrs under 2% O2 condition by WST-1 assay; format: functional, cell-based; conditions: MOLM-13, 24 h
MOLM-13 [5] = assay: Cytotoxicity against human MOLM13 cells assessed as reduction in cell viability incubated for 24 hrs under 19% O2 condition by WST-1 assay; format: functional, cell-based; conditions: MOLM-13, 24 h
[6] = Selectivity index, ratio of EC50 for rat NRK cells to EC50 for human MOLM13 cells under 19% O2 condition; format: toxicity; conditions: NRK cells versus MOLM13 cells, read-out: Ratio EC50
[7] = Selectivity index, ratio of EC50 for rat NRK cells to EC50 for human MOLM13 cells under 2% O2 condition; format: toxicity; conditions: NRK cells versus MOLM13 cells, read-out: Ratio EC50
[8] = Selectivity index, ratio of EC50 for rat NRK cells to EC50 for human MOLM13 cells; format: toxicity; conditions: NRK cells versus MOLM13 cells, read-out: Ratio EC50
[9] = Selectivity index, ratio of EC50 for rat H9c2 cells to EC50 for human MOLM13 cells; format: toxicity; conditions: H9c2 cells versus MOLM13 cells, read-out: Ratio EC50
[10] = Solubility of the compound in DMSO; format: physicochemical
H9c2 [11] = assay: Cytotoxicity against rat H9c2 cells assessed as reduction in cell viability incubated for 24 hrs under 19% O2 condition by Hoechst 33342 staining based microscopic analysis; conditions: H9c2, 24 h
NRK [12] = assay: Cytotoxicity against rat NRK cells assessed as reduction in cell viability incubated for 24 hrs under 2% O2 condition by Hoechst 33342 staining based microscopic analysis
NRK [13] = assay: Cytotoxicity against rat NRK cells assessed as reduction in cell viability incubated for 24 hrs under 19% O2 condition by Hoechst 33342 staining based microscopic analysis

SMILES: [O-][n+]1c2cccc(O)c2[n+]([O-])c2cccc(O)c21
EC50 (NRK [1]): > 50 µM
EC50 (H9c2 [2]): > 50 µM
EC50 (NRK [3]): > 50 µM

SMILES: CCOC(=O)COc1cccc2c1[n+]([O-])c1cccc(O)c1[n+]2[O-]
EC50 (NRK [1]): 18 µM
EC50 (H9c2 [2]): 15 µM
EC50 (NRK [3]): 12 µM

SMILES: COc1cccc2c1[n+]([O-])c1cccc(O)c1[n+]2[O-]
EC50 (NRK [1]): 76 µM
EC50 (H9c2 [2]): 46 µM
EC50 (NRK [3]): 77 µM

SMILES: CCN(CC)C(=O)COc1cccc2c1[n+]([O-])c1cc(C)c(C)cc1[n+]2[O-]
EC50 (NRK [1]): 52 µM
EC50 (H9c2 [2]): 41 µM
EC50 (MOLM-13 [4]): 3.4 µM
EC50 (NRK [3]): 21 µM
EC50 (MOLM-13 [5]): 1.8 µM

SMILES: CCOC(=O)COc1cccc2c1[n+]([O-])c1cc(Br)c(Br)cc1[n+]2[O-]
EC50 (NRK [1]): 9.7 µM
EC50 (H9c2 [2]): 3.3 µM
EC50 (MOLM-13 [4]): 1.6 µM
EC50 (NRK [3]): 10 µM
EC50 (MOLM-13 [5]): 2.4 µM

SMILES: Cc1cc2c(cc1C)[n+]([O-])c1c(O)cccc1[n+]2[O-]
EC50 (NRK [1]): > 50 µM
EC50 (H9c2 [2]): > 50 µM
EC50 (MOLM-13 [4]): 2.3 µM
EC50 (NRK [3]): > 50 µM
EC50 (MOLM-13 [5]): 2.8 µM

SMILES: CC(C)(C)OC(=O)COc1cccc2c1[n+]([O-])c1ccccc1[n+]2[O-]
EC50 (NRK [1]): 25 µM
EC50 (H9c2 [2]): 20 µM
EC50 (MOLM-13 [4]): 1.9 µM
EC50 (NRK [3]): 26 µM
EC50 (MOLM-13 [5]): 2.2 µM

SMILES: CN1CCN(C(=O)Oc2cccc3c2[n+]([O-])c2cc(Cl)c(Cl)cc2[n+]3[O-])CC1
EC50 (NRK [1]): 15 µM
EC50 (H9c2 [2]): 3.2 µM
EC50 (MOLM-13 [4]): 0.32 µM
selectivity ratio [6]: > 30
selectivity ratio [7]: 45
EC50 (NRK [3]): 11 µM
EC50 (MOLM-13 [5]): 0.34 µM

SMILES: Cc1cc2c(cc1C)[n+]([O-])c1c(OC(=O)N3CCCC3)cccc1[n+]2[O-]
EC50 (NRK [1]): 8.9 µM
EC50 (H9c2 [2]): 8.7 µM
EC50 (MOLM-13 [4]): 0.78 µM
EC50 (NRK [3]): 6.6 µM
EC50 (MOLM-13 [5]): 1.5 µM

SMILES: CCOC(=O)Oc1cccc2c1[n+]([O-])c1cccc(OC(=O)OCC)c1[n+]2[O-]
EC50 (NRK [1]): > 25 µM
EC50 (H9c2 [2]): > 25 µM
EC50 (MOLM-13 [4]): 4 µM
EC50 (NRK [3]): > 25 µM
EC50 (MOLM-13 [5]): 6.1 µM

SMILES: CN1CCN(C(=O)Oc2cccc3c2[n+]([O-])c2cccc(O)c2[n+]3[O-])CC1
EC50 (NRK [1]): 59 µM
selectivity ratio [8]: > 15
EC50 (H9c2 [2]): 100 µM
EC50 (MOLM-13 [4]): 1.4 µM
selectivity ratio [9]: > 15
EC50 (NRK [3]): 53 µM
EC50 (MOLM-13 [5]): 1.5 µM

SMILES: Cc1cc2c(cc1C)[n+]([O-])c1c(OC(=O)N3CCN(C)CC3)cccc1[n+]2[O-]
EC50 (NRK [1]): 13 µM
EC50 (H9c2 [2]): 9.4 µM
EC50 (MOLM-13 [4]): 0.54 µM
EC50 (NRK [3]): 12 µM
EC50 (MOLM-13 [5]): 0.63 µM

SMILES: CN1CCN(C(=O)Oc2cccc3c2[n+]([O-])c2cc4ccccc4cc2[n+]3[O-])CC1
EC50 (NRK [1]): 7.5 µM
EC50 (H9c2 [2]): 2.3 µM
EC50 (MOLM-13 [4]): 1.8 µM
EC50 (NRK [3]): 2 µM
EC50 (MOLM-13 [5]): 2.8 µM

SMILES: CN1CCN(C(=O)Oc2cccc3c2[n+]([O-])c2cc(Br)c(Br)cc2[n+]3[O-])CC1
EC50 (NRK [1]): 7.6 µM
EC50 (H9c2 [2]): 2.2 µM
EC50 (MOLM-13 [4]): 0.23 µM
EC50 (NRK [3]): 6.2 µM
EC50 (MOLM-13 [5]): 0.41 µM

SMILES: [O-][n+]1c2ccccc2[n+]([O-])c2c(O)cccc21
EC50 (NRK [1]): > 100 µM
EC50 (H9c2 [2]): > 100 µM
EC50 (MOLM-13 [4]): 12 µM
EC50 (NRK [3]): 79 µM
EC50 (MOLM-13 [5]): 11 µM

SMILES: O=C(Oc1cccc2c1[n+]([O-])c1cccc(O)c1[n+]2[O-])N1CCCC1
EC50 (NRK [1]): 15 µM
selectivity ratio [8]: > 15
EC50 (H9c2 [2]): 12 µM
EC50 (MOLM-13 [4]): 0.79 µM
selectivity ratio [9]: > 15
EC50 (NRK [3]): 9.6 µM
EC50 (MOLM-13 [5]): 0.86 µM

SMILES: COc1cccc2c1[n+]([O-])c1cccc(OC(=O)N(C)C)c1[n+]2[O-]
EC50 (NRK [1]): 29 µM
selectivity ratio [8]: > 15
EC50 (H9c2 [2]): 35 µM
EC50 (MOLM-13 [4]): 1.7 µM
selectivity ratio [9]: > 15
EC50 (NRK [3]): 22 µM
EC50 (MOLM-13 [5]): 1.9 µM

SMILES: CC(C)(C)C(=O)Oc1cccc2c1[n+]([O-])c1cccc(OC(=O)C(C)(C)C)c1[n+]2[O-]
EC50 (H9c2 [2]): > 25 µM
EC50 (MOLM-13 [4]): 8.9 µM
EC50 (MOLM-13 [5]): 11 µM

SMILES: CCOC(=O)COc1cccc2c1[n+]([O-])c1ccccc1[n+]2[O-]
EC50 (NRK [1]): 25 µM
EC50 (H9c2 [2]): 20 µM
EC50 (MOLM-13 [4]): 1.7 µM
EC50 (NRK [3]): 26 µM
EC50 (MOLM-13 [5]): 1.5 µM

solubility [10]: Insoluble
SMILES: [O-][n+]1c2cc3ccccc3cc2[n+]([O-])c2c(O)cccc21
EC50 (MOLM-13 [4]): > 10 µM

SMILES: CCOC(=O)COc1cccc2c1[n+]([O-])c1cc(Cl)c(Cl)cc1[n+]2[O-]
EC50 (NRK [1]): 4.7 µM
EC50 (H9c2 [2]): 1.3 µM
EC50 (MOLM-13 [4]): 0.38 µM
EC50 (NRK [3]): 3.1 µM
EC50 (MOLM-13 [5]): 0.41 µM

SMILES: CN(C)C(=O)Oc1cccc2c1[n+]([O-])c1cccc(O)c1[n+]2[O-]
EC50 (NRK [1]): 62 µM
selectivity ratio [8]: > 15
EC50 (H9c2 [2]): 64 µM
EC50 (MOLM-13 [4]): 0.7 µM
selectivity ratio [9]: > 15
EC50 (NRK [3]): 49 µM
EC50 (MOLM-13 [5]): 0.89 µM

SMILES: COc1cccc2c1[n+]([O-])c1cccc(OC(=O)N3CCN(C)CC3)c1[n+]2[O-]
EC50 (NRK [1]): 39 µM
selectivity ratio [8]: > 15
EC50 (H9c2 [2]): 26 µM
EC50 (MOLM-13 [4]): 0.98 µM
selectivity ratio [9]: > 15
EC50 (NRK [3]): 26 µM
EC50 (MOLM-13 [5]): 1 µM

SMILES: CCCCC(=O)Oc1cccc2c1[n+]([O-])c1cccc(OC(=O)CCCC)c1[n+]2[O-]
EC50 (H9c2 [2]): > 25 µM
EC50 (MOLM-13 [4]): 22 µM
EC50 (MOLM-13 [5]): 36 µM

SMILES: CCN(CC)C(=O)COc1cccc2c1[n+]([O-])c1ccccc1[n+]2[O-]
EC50 (NRK [1]): 16 µM
EC50 (H9c2 [2]): 23 µM
EC50 (MOLM-13 [4]): 1.4 µM
EC50 (NRK [3]): 13 µM
EC50 (MOLM-13 [5]): 1.2 µM

SMILES: Cc1c(C)[n+]([O-])c2c(O)cccc2[n+]1[O-]
EC50 (MOLM-13 [4]): > 200 µM
EC50 (MOLM-13 [5]): > 200 µM

SMILES: CCOC(=O)Oc1cccc2c1[n+]([O-])c1cccc(O)c1[n+]2[O-]
EC50 (H9c2 [2]): > 100 µM
EC50 (MOLM-13 [4]): 66 µM
EC50 (MOLM-13 [5]): 50 µM

SMILES: CN(C)C(=O)Oc1cccc2c1[n+]([O-])c1ccccc1[n+]2[O-]
EC50 (NRK [1]): 25 µM
EC50 (H9c2 [2]): 16 µM
EC50 (MOLM-13 [4]): 2.1 µM
EC50 (NRK [3]): 19 µM
EC50 (MOLM-13 [5]): 1.3 µM

SMILES: O=C(Oc1cccc2c1[n+]([O-])c1ccccc1[n+]2[O-])N1CCCC1
EC50 (NRK [1]): 21 µM
EC50 (H9c2 [2]): 13 µM
EC50 (MOLM-13 [4]): 1.2 µM
EC50 (NRK [3]): 18 µM
EC50 (MOLM-13 [5]): 1.5 µM

SMILES: CCOC(=O)COc1cccc2c1[n+]([O-])c1cc(C)c(C)cc1[n+]2[O-]
EC50 (NRK [1]): > 100 µM
EC50 (H9c2 [2]): > 100 µM
EC50 (MOLM-13 [4]): 6.3 µM
EC50 (MOLM-13 [5]): 8.3 µM

SMILES: Cc1c(C)[n+]([O-])c2c(OC(=O)N3CCN(C)CC3)cccc2[n+]1[O-]
EC50 (MOLM-13 [4]): > 200 µM
EC50 (MOLM-13 [5]): > 200 µM

SMILES: Cc1c(C)[n+]([O-])c2c(OC(=O)N3CCOCC3)cccc2[n+]1[O-]
EC50 (MOLM-13 [4]): > 200 µM
EC50 (MOLM-13 [5]): > 200 µM

SMILES: COc1cccc2c1[n+]([O-])c1cccc(OC(=O)N3CCCC3)c1[n+]2[O-]
EC50 (NRK [1]): 35 µM
selectivity ratio [8]: > 15
EC50 (H9c2 [2]): 35 µM
EC50 (MOLM-13 [4]): 1.8 µM
selectivity ratio [9]: > 15
EC50 (NRK [3]): 32 µM
EC50 (MOLM-13 [5]): 2 µM

SMILES: CN1CCN(C(=O)Oc2cccc3c2[n+]([O-])c2ccccc2[n+]3[O-])CC1
EC50 (NRK [1]): 37 µM
EC50 (H9c2 [2]): 36 µM
EC50 (MOLM-13 [4]): 1.9 µM
EC50 (NRK [3]): 25 µM
EC50 (MOLM-13 [5]): 1.5 µM

SMILES: Nc1n[n+]([O-])c2ccccc2[n+]1[O-] [TIRAPAZAMINE]
EC50 (H9c2 [11]): > 100 µM
EC50 (NRK [12]): 35 µM
EC50 (NRK [13]): > 100 µM

Reference: ChEMBL document CHEMBL4732033, “New prodrugs and analogs of the phenazine 5,10-dioxide natural products iodinin and myxin promote selective cytotoxicity towards human acute myeloid leukemia cells” (RSC Med Chem, 2021)
